Consider 1 compound from article PMC7387440, “EGCG impedes human Tau aggregation and interacts with Tau” (Scientific Reports, 2020).

For this assay, the target named is T1, full-length Tau (human Tau40wt) (Homo sapiens, UniProt P10636).
T1 construct: gene MAPT; full-length recombinant Tau (Tau40wt, 441 residues)
The assay can be described thus: isothermal titration calorimetry ([…] Tau titrated with […] EGCG). In kind it is binding. On the technique in general: Isothermal titration calorimetry measures the heat released or taken up as one component is titrated into another.

T1 sequence (P10636 1-441 isoform P10636-8): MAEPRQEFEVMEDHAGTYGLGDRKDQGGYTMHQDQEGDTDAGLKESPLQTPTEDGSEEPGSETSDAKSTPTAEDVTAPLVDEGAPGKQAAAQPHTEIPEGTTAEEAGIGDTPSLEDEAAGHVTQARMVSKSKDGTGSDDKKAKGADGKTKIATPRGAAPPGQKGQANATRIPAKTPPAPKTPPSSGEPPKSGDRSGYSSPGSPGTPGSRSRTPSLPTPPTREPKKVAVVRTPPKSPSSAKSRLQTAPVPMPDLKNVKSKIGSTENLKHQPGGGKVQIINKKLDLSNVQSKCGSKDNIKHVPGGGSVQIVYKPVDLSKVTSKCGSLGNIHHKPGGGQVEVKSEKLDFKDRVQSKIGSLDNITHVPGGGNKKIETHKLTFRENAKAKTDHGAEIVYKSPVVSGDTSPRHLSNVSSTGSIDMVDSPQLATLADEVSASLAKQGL

Take `O=C(O[C@@H]1Cc2c(O)cc(O)cc2O[C@@H]1c1cc(O)c(O)c(O)c1)c1cc(O)c(O)c(O)c1` [EGCG]: the Kd came to 0.074 µM.

The Kd is the free concentration of one partner at which half of the binding sites on the other are occupied at equilibrium, for simple one-to-one binding.
